The source of these data is patent US5164400A, “Pyrroloquinoline compounds” (Fujisawa Pharmaceutical Co., Ltd., priority 1989, dated 1992).

The IC50 is the concentration needed to halve the response being measured. Lower therefore signals higher potency.

The test system of one test is Sterol Synthesis. The test can be described thus: Assay for Sterol Synthesis in Rats (in vivo). The note with it: dose 10.0 mg/kg, oral intubation, [1-^14 C] acetate i.p. 1 hour after compound, blood after 50 minutes. On the set-up: species or system Male SD rats. How it is done: (2) Test 2 [Assay for Sterol Synthesis in Rats (in vivo)]
Male SD rats are administered the test compound by oral intubation. One hour after compound administration, the rats are injected intraperitoneally with sodium [1-^14 C] acetate at 3.7 MBq/kg (=100 μCi/kg). After 50 minutes, 2.5 ml of blood samples are taken by cardiac puncture under short-term ether anesthesia. The plasma, obtained by centrifugation, is hydrolyzed and nonsaponifiable lipids are extracted with the petroleum ether. Sterols are isolated from these extracts as digitonide, dissolved in 1ml of methanol and the radioactivity is counted.

Test [1] addresses T1, rat liver 3-Hydroxy-3-methylglutary-Coenzyme A Reductase (Rattus norvegicus, UniProt P51639).
T1 construct: from tissue; host or cells: rat liver microsomes (solubilized, purified through second ammonium sulfate precipitation)
T1 sequence (P51639 1-887): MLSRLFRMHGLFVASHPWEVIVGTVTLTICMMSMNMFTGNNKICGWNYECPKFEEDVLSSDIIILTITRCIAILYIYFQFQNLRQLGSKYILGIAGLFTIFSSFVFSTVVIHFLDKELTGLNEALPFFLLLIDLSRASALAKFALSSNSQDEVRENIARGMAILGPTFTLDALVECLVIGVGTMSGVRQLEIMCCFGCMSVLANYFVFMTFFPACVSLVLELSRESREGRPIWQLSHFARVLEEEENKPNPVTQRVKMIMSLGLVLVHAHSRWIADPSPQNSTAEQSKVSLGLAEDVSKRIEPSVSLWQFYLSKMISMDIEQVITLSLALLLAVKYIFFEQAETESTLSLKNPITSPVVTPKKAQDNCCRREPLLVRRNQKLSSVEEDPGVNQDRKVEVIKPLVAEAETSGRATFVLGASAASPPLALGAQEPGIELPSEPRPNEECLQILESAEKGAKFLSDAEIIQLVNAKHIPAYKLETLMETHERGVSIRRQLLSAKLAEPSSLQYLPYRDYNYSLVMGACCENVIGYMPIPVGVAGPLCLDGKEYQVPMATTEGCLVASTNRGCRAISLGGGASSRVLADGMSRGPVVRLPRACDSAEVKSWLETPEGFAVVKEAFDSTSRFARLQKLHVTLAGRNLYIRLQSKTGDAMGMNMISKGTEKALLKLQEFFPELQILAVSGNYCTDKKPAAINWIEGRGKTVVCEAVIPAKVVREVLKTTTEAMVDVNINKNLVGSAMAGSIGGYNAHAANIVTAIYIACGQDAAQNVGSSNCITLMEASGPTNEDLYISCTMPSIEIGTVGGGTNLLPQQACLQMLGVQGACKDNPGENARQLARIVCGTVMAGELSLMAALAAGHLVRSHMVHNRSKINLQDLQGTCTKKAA
The experiment in a line: Assay for rat liver 3-Hydroxy-3-methylglutary-Coenzyme A Reductase Activity (in vitro). It counts as biochemical. The note with it: enzyme solubilized from rat liver microsomes, pH 7.4, 37° C., 20 minutes. The method, then: (1) Test 1 [Assay for rat liver 3-Hydroxy-3-methylglutary-Coenzyme A Reductase Activity (in vitro)]
Five μl or an enzyme solution, solubilized from rat liver microsomes and purified through the second ammonium sulfate precipitation step, is added to 35 μl of a reaction mixture containing 1.11 kBg(=0.03 μCi) or 3-hydroxy-3-metyhl [3-^14 C] glutary coenzyme A, 100 mM potassium phosphate buffer, pH 7.4, 10 mM ethylenediaminetetraacetic acid (EDTA), 10 mM dithiothreitol with or without the graded concentrations of the test compound. The reaction is started by addition of 10 μl of 25 mM β-nicotinamide adenine dinucleotide phosphate, reduced form (NADPH). The mixture is incubated at 37° C. for 20 minutes. The reaction is terminated by addition of 10 μl of 2N hydrochloric acid. After an additional incubation for 15 minutes at 37° C., a 20 μl aliquot of the mixture is applied to a Silica Gel 60 F-254 plate (made by Merck & Co., Inc.). The chromatograms are developed in benzene/acetone (1:1). Sections of the thin layer plates where the mevalonolactone is located are scraped and the radioactivity are counted.
For orientation: Liver microsomes are a subcellular fraction often used to study metabolism.

For `COc1cc(F)ccc1-c1c(/C=C/[C@@H](O)C[C@@H](O)CC(=O)O)n2c3c(cccc13)CCC2(C)C` (relative stereo) [Compound A], in the test with Sterol Synthesis, the “Inhibition (%)” value worked out at 95.7%. In addition, in test [1], the midpoint of inhibition, the IC50, lay at 53.5 nM.

`COc1cc(F)ccc1-c1c(/C=C/C(O)CC(O)CC(=O)O)n2c3c(cccc13)CCC2(C)C` (single isomer, unassigned) [Compound B, sodium (+)-erythro-(E)-7-[5,6-dihydro-4,4-dimethyl-1-(4-fluoro-2-methoxyphenyl)-4H-pyrrolo[3,2,1-ij]quinolin-2-yl]-3,5-dihydroxyhept-6-enoate]: in test [1], the IC50 is 25.7 nM.
